According to ChEMBL document CHEMBL1828599, “Synthesis, fluorescence and biodistribution of a bone-targeted near-infrared conjugate” (Eur J Med Chem, 2011):

Key:
Liver [1] = assay: Biodistribution in liver of BALB/C mouse at 1.7 x 10^-6 mol/kg, iv as single dose measured up to 60 mins by fluorescence imaging technique; assay type: ADME, organism-based; settings: in vivo, 1 h
Duodenum = assay: Biodistribution in duodenum of BALB/C mouse at 1.7 x 10^-6 mol/kg, iv as single dose measured at 4 hrs by fluorescence imaging technique; assay type: ADME, organism-based; settings: in vivo
Kidney = assay: Biodistribution in Kidney of BALB/C mouse at 1.7 x 10^-6 mol/kg, iv as single dose measured at 4 hrs by fluorescence imaging technique; assay type: ADME, organism-based; settings: in vivo
Mus musculus [2] = assay: Biodistribution in bone joint of BALB/C mouse at 1.7 x 10^-6 mol/kg, iv as single dose measured at 24 hrs by fluorescence imaging technique; assay type: ADME, organism-based, Bone element; settings: in vivo
Liver [3] = assay: Biodistribution in liver of BALB/C mouse at 1.7 x 10^-6 mol/kg, iv as single dose measured at 4 hrs by fluorescence imaging technique; assay type: ADME, organism-based; settings: in vivo
Mus musculus [4] = assay: Biodistribution in bone joint of BALB/C mouse at 1.7 x 10^-6 mol/kg, iv as single dose measured at 16 days by fluorescence imaging technique; assay type: ADME, organism-based, Bone element; settings: in vivo, 384 h
Mus musculus [5] = assay: Biodistribution in bone joint of BALB/C mouse at 1.7 x 10^-6 mol/kg, iv as single dose measured up to 8 days by fluorescence imaging technique; assay type: ADME, organism-based, Bone element; settings: in vivo, 192 h
Mus musculus [6] = assay: Biodistribution in soft tissue of BALB/C mouse at 1.7 x 10^-6 mol/kg, iv as single dose measured at 24 hrs by fluorescence imaging technique; assay type: ADME, organism-based; settings: in vivo
Mus musculus [7] = assay: Biodistribution in hip bone of BALB/C mouse at 1.7 x 10^-6 mol/kg, iv as single dose measured at 24 hrs by fluorescence imaging technique; assay type: ADME, organism-based, Bone of hip region; settings: in vivo
Mus musculus [8] = assay: Biodistribution in leg bone of BALB/C mouse at 1.7 x 10^-6 mol/kg, iv as single dose measured at 24 hrs by fluorescence imaging technique; assay type: ADME, organism-based, Bone element; settings: in vivo

Row | Drug uptake (Liver [1]) | Drug uptake (Duodenum) | Drug uptake (Kidney) | Drug uptake (Mus musculus [2]) | Drug uptake (Liver [3]) | Structure (SMILES) | Drug uptake (Mus musculus [4]) | Drug uptake (Mus musculus [5]) | Drug uptake (Mus musculus [6]) | Drug uptake (Mus musculus [7]) | Drug uptake (Mus musculus [8])
1 | Active | Active | Active | Not Active | Active | CC1(C)C(/C=C/C=C/C=C/C=C2\N(CCCCC(=O)O)c3ccc4ccccc4c3C2(C)C)=[N+](CCCCS(=O)(=O)[O-])c2ccc3ccccc3c21 | – | – | – | – | –
2 | Active | Active | Active | Not Active | Active | CC1(C)C(/C=C/C=C/C=C/C=C2\N(CCCCC(=O)O)c3ccc4ccccc4c3C2(C)C)=[N+](CCCCC(=O)[O-])c2ccc3ccccc3c21 | – | – | – | – | –
3 | – | – | – | – | – | CC1(C)C(/C=C/C=C/C=C/C=C2\N(CCCCC(=O)CCCC(O)(P(=O)([O-])O)P(=O)(O)O)c3ccc4ccccc4c3C2(C)C)=[N+](CCCCS(=O)(=O)[O-])c2ccc3ccccc3c21.[Na+] | Not Active | Active | Not Active | Active | Active
4 | Active | Active | Active | Active | Active | CC1(C)C(/C=C/C=C/C=C/C=C2/N(CCCCS(=O)(=O)[O-])c3ccc4ccccc4c3C2(C)C)=[N+](CCCCS(=O)(=O)[O-])c2ccc3ccccc3c21.[Na+] [INDOCYANINE GREEN] | – | – | – | – | –
